In PMC7852560 (Neuropsychopharmacology, 2020):

Tests used:
[1] = biological target: T1, CB1R (Homo sapiens, UniProt P21554); experiment: cell-based; assay type: cell-based; conditions: hCB1R CHO cells, data not shown
Protocol: The cAMP BRET experiments were performed as previously described. Briefly, hCB1R HEK293 cells were transfected with 5 µg/10 cm dish of the CAMYEL biosensor using polyethylenimine. After 24 h, the cells were plated into white 96-well plates (PerkinElmer) at a density of 60,000 cells/well.
Cyclic AMP accumulation was measured using a DiscoverX HitHunter® cAMP Assay for Small Molecules (DiscoverX, Fremont, CA). hCB1R CHO cells were seeded at a density of 40,000 cells/well in 96-well white plates and grown overnight at 37 °C, 5% CO2 in a humidified incubator. […] Vehicle concentration was 1% DMSO, 0.1% BSA. Following agonist incubation, 15 µl of cAMP antibody reagent and 60 µl of working cAMP detection solution (containing 19 parts cAMP lysis buffer, 5 parts Substrate Reagent 1, 1 part Substrate Reagent 2 and 25 parts of cAMP Solution D) were added to all wells. Assay plates were incubated in the dark for 1 hr at room temperature, followed by addition of 60 µl cAMP solution A to all wells and incubation for 3 hr at room temperature in the dark. Plates were read using a GloMax Discover plate-reader (Promega, Madison, WI).

[2] = test system: GluN1KD mice; experiment: Open-field test in GluN1KD mice; conditions: ABM300 10 mg/kg, OLA 1 mg/kg i.p., 30 min before test
[3] = test system: GluN1KD mice; experiment: Pre-pulse inhibition in GluN1KD mice; assay type: in vivo; conditions: ABM300 10 mg/kg, OLA 1 mg/kg i.p.
Protocol: Pre-Pulse Inhibition (PPI): PPI of the acoustic startle response was measured on day 3, via SR-LAB equipment and software from San Diego Instruments. Accelerometers were calibrated to 700±5 mV and output voltages were amplified and analyzed for voltage changes using SR Analysis (San Diego Instruments, San Diego, CA, USA), and exported as an excel file. Background white noise was maintained at 65dB. PPI was measured in a 30-min test with 80 randomized trials of: (1) 10 trials pulse alone (2) 10 trials pre-pulse alone (for each pre-pulse), (3) 10 trials pre-pulse plus pulse (for each pre-pulse), and (4) 10 trials no pulse. 5 pulse alone trials were performed before and after the 80 trials, totaling 90 trials per run. The pre-pulse (4dB, 8dB, or 16dB) was presented 100ms prior to the startle pulse […]. The inter-stimulus interval (ISI) was randomized between 5 and 20s. Experimental mice were placed in a cylindrical tube on a platform in a soundproof chamber. Mice were allowed to acclimatize in the chamber and to the background noise for 300s, followed by 5 consecutive pulse alone trials, then by 80 randomized trials (as described above) and then 5 consecutive pulse alone trials. Pre-pulse inhibition was measured as a decrease in the amplitude of startle response to a 100dB acoustic startle pulse, following each pre-pulse (4dB, 8dB and 16dB).

[4] = test system: Male Sprague Dawley rats; experiment: Conditioned avoidance response (CAR); assay type: in vivo; conditions: rats, ABM300 10 mg/kg, olanzapine 1 mg/kg i.p. daily
Protocol: Male Sprague Dawley rats (PD>63) were trained on a CAR protocol and responding following drug exposure was determined. […] Animals were trained to learn a house light (CS) as predictive of an avoidable 0.6mA scrambled foot shock (US). Each session consisted of 50 trials and animals avoided >70% of trials on the final acquisition session were tested for CAR during vehicle baseline, drug exposure, and re-emergence. In addition to CAR testing, both temperature and catalepsy were recorded in these animals (measure of potential CB1R agonism). Temperature: recorded on first day of drug exposure, prior to injection and 60-90-min. following drug exposure.

[5] = test system: C57Bl/6J mice; assay type: in vivo; conditions: 10 mg/kg i.p., 30 min before test, compared to vehicle
Text: (i.p.) before testing. The EPM was composed of 4 opaque-white arms (2 opposite arms closed, 2 opposite arms open), arranged in a plus shape, with an open center. The dimensions were as follows; maze elevation (38.7cm), open arm (L:30.5 cm, W:5 cm, H:0 cm), closed arm (L:30.5 cm, W:5 cm, H:15.2 cm) and center (5 cm x 5 cm). The experiment mouse was placed in the center of the maze and allowed to freely explore the maze for 8-min (50lux), while being tracked with an overhead camera. Open and closed arm times were recorded and collected by Biobserve Viewer3 software. The percentage of time spent in the open arms as compared to closed arms and center time was calculated and expressed as a percent of time spent in the open or closed arms of the maze.

[6] = test system: Male C57Bl/6J mice; experiment: Cannabinoid-induced tetrad; assay type: in vivo; conditions: 10 mg/kg i.p., 30 min prior
Protocol: Male C57Bl/6J mice (PD > 70) were tested on the cannabinoid-induced tetrad, as previously described.
(i.p.) before testing. The tetrad was performed (1) catalepsy, (2) locomotion, (3) temperature, and (4) analgesia. Catalepsy: time (s) spent immobile with front paws on a plastic rod (1.5cm diameter), at a height of 4.5-cm from the table, before adjusting abnormal posture (either front paws being removed from the bar, or back paws climbing onto bar). Locomotion: horizontal activity (cm) was immediately measured in an open field test, following catalepsy, for 15-min. in 1-min bins. Temperature: rectal temperature (°C) was measured immediately following open-field testing, using a thermometer with rectal probe (Labcorp, Fisher, Waltham, MA). Analgesia: latency (s) to withdraw tail from hot water bath (52 °C), to assess tail-flick antinociception, was completed immediately following temperature readings.

[7] = biological target: T1, CB1R; design: beta-galactosidase enzyme fragment (EFC; ProLink by own knowledge); method as in PMID 16113085, PMID 18029031; conditions: cited from earlier work
[8] = biological target: T1, CB1R; design: beta-galactosidase enzyme fragment (EFC; ProLink by own knowledge); method as in PMID 16113085, PMID 18029031; conditions: cited from earlier work; remark: listed apart in the source

T1 sequence (P21554 whole entry): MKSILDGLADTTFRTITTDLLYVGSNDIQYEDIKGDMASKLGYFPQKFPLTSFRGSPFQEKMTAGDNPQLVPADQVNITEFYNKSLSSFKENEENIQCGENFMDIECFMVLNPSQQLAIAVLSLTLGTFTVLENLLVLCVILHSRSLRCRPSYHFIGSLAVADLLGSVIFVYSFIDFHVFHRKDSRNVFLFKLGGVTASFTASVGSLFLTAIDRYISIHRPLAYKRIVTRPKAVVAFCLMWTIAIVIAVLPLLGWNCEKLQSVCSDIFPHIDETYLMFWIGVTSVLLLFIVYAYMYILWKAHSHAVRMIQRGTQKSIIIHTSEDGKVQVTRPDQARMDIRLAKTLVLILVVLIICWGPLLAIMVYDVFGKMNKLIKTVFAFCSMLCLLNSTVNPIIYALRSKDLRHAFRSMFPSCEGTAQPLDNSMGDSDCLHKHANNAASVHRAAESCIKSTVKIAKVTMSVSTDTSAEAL

## CCCCCCC(C)(C)c1ccc([C@@H]2C[C@H](O)CC[C@H]2CCCO)c(O)c1 [CP55,940, reference compound]
[1]
  effect on forskolin-stimulated cAMP accumulation: inhibited

## Cc1cc2c(s1)Nc1ccccc1N=C2N1CCN(C)CC1 [olanzapine, reference compound]
[2]
  exaggerated stereotypic activity: Effects of ABM300 are similar to those seen with olanzapine
  novelty-induced hyperactivity (distance traveled): Effects of ABM300 are similar to those seen with olanzapine
  rearing behavior (vertical exploration): Effects of ABM300 are similar to those seen with olanzapine
[3]
  acoustic startle response: did not respond
  sensorimotor gating deficits (PPI; 4, 8, 16 dB): did not respond
[4]
  escape failures in CAR: neither ABM300 nor olanzapine affected escape failures
  escape responding during CAR: enhanced escape responding
[4]; 30 min prior
  avoidance behavior in CAR: attenuated avoidance behavior

## Cc1c(C(=O)NN2CCCCC2)nn(-c2ccc(Cl)cc2Cl)c1-c1ccc(Cl)cc1 [rimonabant, reference compound]
[5]
  time spent in the open arms (EPM): significantly reduced

## CCCCCc1cc(O)c2c(c1)OC(C)(C)[C@@H]1CCC(C)=C[C@@H]21 [THC, Δ^9-tetrahydrocannabinol, reference compound]
[6]
  tetrad: catalepsy-induced immobility time: produced effects
  tetrad: percent inhibition of locomotor activity (15 min): produced effects
  tetrad: rectal temperature: produced effects
  tetrad: tail withdrawal (% MPE): produced effects

## CCc1c(C(=O)NCCc2ccc(N3CCCCC3)cc2)[nH]c2ccc(Cl)cc12 [Org275]
[7]
  CB1R agonist-mediated signaling: acts as an inhibitor
[8]
  Bmax of [3H] CB1R agonist binding: increases the Bmax
